This passage reports CL, Activity and ED50 results from ChEMBL document CHEMBL1152235, “(3R)-3-amino-4-(2,4,5-trifluorophenyl)-N-{4-[6-(2-methoxyethoxy)benzothiazol-2-yl]tetrahydropyran-4-yl}butanamide as a potent dipeptidyl peptidase IV inhibitor for the treatment of type 2 diabetes” (Bioorg Med Chem Lett, 2008).

Calls of active or inactive are those of the source. The calls are words filed in the database; no cut-off is given here.

The conditions of data set [1]: rat, microsomes.
For data set [2] the following is noted: human, microsomes.
The conditions of data set [3]: mouse, microsomes.
Description: Metabolic stability in mouse microsomes assessed as intrinsic clearance
Data set [4] has as its system Mus musculus. In words: Reduction in blood glucose excursion in ICR mouse at 30 mg/kg, po administered 30 mins prior to glucose challenge by glucose tolerance test. It is filed as functional, organism-based. Set-up: dose 30 mg/kg.
Data set [5] deals with Rattus norvegicus. In words: Inhibition of DPP4 in po dosed Sprague-Dawley rat plasma. Format: functional.

For `N[C@@H](CC(=O)NC1(c2nc3ccccc3s2)CCS(=O)(=O)CC1)Cc1cc(F)c(F)cc1F`, the CL in data set [1] amounted to 0.0644 mL/min/mg; in data set [2], 0.0399 mL/min/mg.

For the molecule `COCCOc1ccc2nc(C3(NC(=O)C[C@H](N)Cc4cc(Cl)ccc4F)CCOCC3)sc2c1`, the CL in data set [1] turned out to be 0.0981 mL/min/mg; in data set [3] it was 0.0286 mL/min/mg; in data set [2], 0.0342 mL/min/mg.

Turning to `N[C@@H](CC(=O)NC1(c2nc3ccc(OCCN4CCOCC4)cc3s2)CCS(=O)(=O)CC1)Cc1cc(F)c(F)cc1F`, the CL worked out at 0.026 mL/min/mg in data set [1], 0.0345 mL/min/mg in data set [3] and 0.0928 mL/min/mg in data set [2].

Consider `C[C@]12CC[C@H]3[C@@H](CCC4=CC(=O)CC[C@@]43C)[C@@H]1CC[C@@H]2O` [TESTOSTERONE], for which the CL in data set [1] turned out to be 0.3756 mL/min/mg; in data set [3], 0.3126 mL/min/mg; in data set [2], 0.1093 mL/min/mg.

`N[C@@H](CC(=O)NC1(c2nc3ccccc3s2)CCS(=O)(=O)CC1)Cc1ccccc1F`: the CL in data set [1] stood at 0.0734 mL/min/mg; in data set [2], 0.0346 mL/min/mg.

For the molecule `COCCOc1ccc2nc(C3(NC(=O)C[C@H](N)Cc4cc(Cl)ccc4F)CCS(=O)(=O)CC3)sc2c1`, the CL in data set [1] came out at 0.0315 mL/min/mg; in data set [3], 0.033 mL/min/mg; in data set [2] it was 0.0638 mL/min/mg.

Take `COCCOc1ccc2nc(C3(NC(=O)C[C@H](N)Cc4cc(F)c(F)cc4F)CCOCC3)sc2c1`: the CL was 0.0496 mL/min/mg in data set [1], 0.0221 mL/min/mg in data set [3] and 0.0219 mL/min/mg in data set [2]. In addition, the outcome in data set [4] was Active. In addition, in data set [5], the Activity entry is “Dose-dependent effect”. Further, the ED50 in data set [5] (read-out: ID50 (the source's name)) stood at 2.7 mg/kg.

With `COc1ccc2nc(C3(NC(=O)C[C@H](N)Cc4ccccc4F)CCS(=O)(=O)CC3)sc2c1`, the results for the CL in data set [1] and in data set [2] were 0.0515 mL/min/mg and 0.0262 mL/min/mg, respectively.

`COCCOc1ccc2nc(C3(NC(=O)C[C@H](N)Cc4cc(F)c(F)cc4F)CCS(=O)(=O)CC3)sc2c1`: the values for the CL in data set [1], in data set [3] and in data set [2] were 0.0219 mL/min/mg, 0.0341 mL/min/mg and 0.0466 mL/min/mg, respectively.

On to `COc1ccc2nc(C3(NC(=O)C[C@H](N)Cc4cc(F)c(F)cc4F)CCS(=O)(=O)CC3)sc2c1`, for which the CL in data set [1] is 0.0423 mL/min/mg; in data set [2], 0.0323 mL/min/mg.
